According to PubChem BioAssay AID248 (DTP/NCI, 2004):
Where “and” joins values, the source holds several entries; their conditions need not be identical. Equal entries are not always repeated. Inconclusive results and toxic doses are left out. No stated cut-off is given here; in the data, active means T/C of 150% or more; inactive means T/C below 125%.

Test system: L1210 leukemia ip in BDF1 mice, survival T/C
Experiment: NCI In Vivo Anticancer Drug Screen. Data for tumor model L1210 Leukemia (intraperitoneal) in B6D2F1 (BDF1) mice
Conditions: endpoint: mean survival time, higher = longer survival
Outline: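 Ratio derived from survival: compound-dosed mice over vehicle-dosed mice, all bearing a transplantable tumor.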

[1] = dose: 100.0 mg/kg/injection, schedule: Q01DX001 (ip), vehicle: saline
[2] = dose: 200.0 mg/kg/injection, schedule: Q01DX001 (ip), vehicle: saline
[3] = dose: 400.0 mg/kg/injection, schedule: Q01DX001 (ip), vehicle: saline
[4] = dose: 100.0 mg/kg/injection, schedule: Q04DX003 (ip), vehicle: Klucel (hydroxypropylcellulose) (HPC)
[5] = dose: 200.0 mg/kg/injection, schedule: Q04DX003 (ip), vehicle: Klucel (hydroxypropylcellulose) (HPC)
[6] = dose: 400.0 mg/kg/injection, schedule: Q04DX003 (ip), vehicle: Klucel (hydroxypropylcellulose) (HPC)
[7] = dose: 75.0 mg/kg/injection, schedule: Q01DX001 (ip), vehicle: other
[8] = dose: 100.0 mg/kg/injection, schedule: Q04DX003 (ip), vehicle: saline
[9] = dose: 200.0 mg/kg/injection, schedule: Q04DX003 (ip), vehicle: saline
[10] = dose: 400.0 mg/kg/injection, schedule: Q04DX003 (ip), vehicle: saline
[11] = dose: 100.0 mg/kg/injection, schedule: Q01DX001 (ip), vehicle: carboxymethylcellulose (CMC)
[12] = dose: 200.0 mg/kg/injection, schedule: Q01DX001 (ip), vehicle: carboxymethylcellulose (CMC)
[13] = dose: 400.0 mg/kg/injection, schedule: Q01DX001 (ip), vehicle: carboxymethylcellulose (CMC)

Measured: T/C

O=P1(c2ccccc2)CCc2[nH]c3ccc(Br)cc3c2C1 (stereo not drawn)
inactive: dose: 100.0 mg/kg/injection, schedule: Q01DX001 (ip), vehicle: Klucel (hydroxypropylcellulose) (HPC) 97 % of control | dose: 200.0 mg/kg/injection, schedule: Q01DX001 (ip), vehicle: Klucel (hydroxypropylcellulose) (HPC) 93 % of control | dose: 400.0 mg/kg/injection, schedule: Q01DX001 (ip), vehicle: Klucel (hydroxypropylcellulose) (HPC) 98 % of control

ClC(Cl)(Cl)CC(Br)C(Br)CBr (stereo not drawn)
inactive: dose: 100.0 mg/kg/injection, schedule: Q01DX001 (ip), vehicle: acetone 96 % of control | dose: 100.0 mg/kg/injection, schedule: Q01DX009 (ip), vehicle: acetone 95 % of control | dose: 100.0 mg/kg/injection, schedule: Q04DX003 (ip), vehicle: acetone 97 % of control | dose: 200.0 mg/kg/injection, schedule: Q01DX001 (ip), vehicle: acetone 98 % of control | dose: 200.0 mg/kg/injection, schedule: Q04DX003 (ip), vehicle: acetone 92 % of control | dose: 400.0 mg/kg/injection, schedule: Q01DX001 (ip), vehicle: acetone 98 % of control | dose: 400.0 mg/kg/injection, schedule: Q04DX003 (ip), vehicle: acetone 91 % of control

O=c1cc(N(Cc2ccccc2)Cc2ccccc2)[nH]c(=O)[nH]1
inactive: dose: 75.0 mg/kg/injection, schedule: Q01DX001 (ip), vehicle: Klucel (hydroxypropylcellulose) (HPC) 101 % of control | dose: 75.0 mg/kg/injection, schedule: Q01DX001 (ip), vehicle: saline with Tween-80 94 % of control | dose: 150.0 mg/kg/injection, schedule: Q01DX001 (ip), vehicle: Klucel (hydroxypropylcellulose) (HPC) 102 % of control | dose: 150.0 mg/kg/injection, schedule: Q01DX001 (ip), vehicle: saline with Tween-80 95 % of control | dose: 300.0 mg/kg/injection, schedule: Q01DX001 (ip), vehicle: Klucel (hydroxypropylcellulose) (HPC) 106 % of control | dose: 300.0 mg/kg/injection, schedule: Q01DX001 (ip), vehicle: saline with Tween-80 98 % of control

Cc1cn(C2OC(CO)C(O)C(O)C2N)c(=O)[nH]c1=O (stereo not drawn)
inactive: dose: 50.0 mg/kg/injection, schedule: Q01DX001 (ip), vehicle: saline 107 % of control | [1] 97 % of control and 103 % of control | [2] 97 % of control and 108 % of control | [3] 103 % of control and 105 % of control

Clc1nc(Nc2ccccc2)nc(Nc2ccccc2)n1
inactive: [4] 96 % of control | [5] 93 % of control | [6] 95 % of control

CCN(CC)Cc1cc(O)c(CN(CC)CC)cc1O
inactive: dose: 25.0 mg/kg/injection, schedule: Q01DX001 (ip), vehicle: saline with Tween-80 93 % of control | dose: 50.0 mg/kg/injection, schedule: Q01DX001 (ip), vehicle: saline with Tween-80 103 % of control | dose: 100.0 mg/kg/injection, schedule: Q01DX001 (ip), vehicle: saline with Tween-80 96 % of control

N=c1c2n[nH]nc2ncn1O
inactive: [7] 92 % of control | dose: 150.0 mg/kg/injection, schedule: Q01DX001 (ip), vehicle: other 110 % of control | dose: 300.0 mg/kg/injection, schedule: Q01DX001 (ip), vehicle: other 101 % of control

OC(c1ccccc1)(c1ccccc1)C1CC1c1ccncc1 (stereo not drawn)
inactive: dose: 25.0 mg/kg/injection, schedule: Q04DX003 (ip), vehicle: saline 107 % of control | dose: 50.0 mg/kg/injection, schedule: Q04DX003 (ip), vehicle: saline 104 % of control | [8] 98 % of control | [9] 98 % of control | [10] 91 % of control

O=C(Cc1ccccn1)c1ccccc1
inactive: [4] 96 % of control | [5] 96 % of control | [6] 92 % of control

CCOCCCCO
inactive: dose: 100.0 mg/kg/injection, schedule: Q01DX009 (ip), vehicle: saline 96 % of control | dose: 200.0 mg/kg/injection, schedule: Q01DX009 (ip), vehicle: saline 92 % of control | dose: 400.0 mg/kg/injection, schedule: Q01DX009 (ip), vehicle: saline 94 % of control

COc1ccc2c(c1)c(Cl)c1ccc(Cl)cc1[n+]2[O-]
inactive: dose: 100.0 mg/kg/injection, schedule: Q04DX002 (ip), vehicle: saline with Tween-80 91 % of control | dose: 200.0 mg/kg/injection, schedule: Q04DX002 (ip), vehicle: saline with Tween-80 95 % of control | dose: 400.0 mg/kg/injection, schedule: Q04DX002 (ip), vehicle: saline with Tween-80 107 % of control

Clc1ccccc1C1Nc2ccccc2S1 (stereo not drawn)
inactive: [1] 109 % of control | [2] 104 % of control | [3] 99 % of control

c1ccc(C2=NNc3cccc[n+]3C2)cc1
inactive: [7] 101 % of control

c1coc(-c2ncc3cnccn23)c1
inactive: dose: 50.0 mg/kg/injection, schedule: Q01DX005 (ip), vehicle: saline 111 % of control | dose: 100.0 mg/kg/injection, schedule: Q01DX005 (ip), vehicle: saline 108 % of control

O=C1CCC(N2C(=O)C3C4CCC(O4)C3C2=O)C(=O)N1 (stereo not drawn)
inactive: dose: 100.0 mg/kg/injection, schedule: Q04DX002 (ip), vehicle: Klucel (hydroxypropylcellulose) (HPC) 103 % of control | dose: 100.0 mg/kg/injection, schedule: Q04DX003 (ip), vehicle: saline with Tween-80 96 % of control | dose: 200.0 mg/kg/injection, schedule: Q04DX002 (ip), vehicle: Klucel (hydroxypropylcellulose) (HPC) 113 % of control | dose: 200.0 mg/kg/injection, schedule: Q04DX003 (ip), vehicle: saline with Tween-80 100 % of control | dose: 400.0 mg/kg/injection, schedule: Q04DX002 (ip), vehicle: Klucel (hydroxypropylcellulose) (HPC) 103 % of control | dose: 400.0 mg/kg/injection, schedule: Q04DX003 (ip), vehicle: saline with Tween-80 96 % of control

CCOC(=O)C(CC(C)C)NP(=O)(CCl)N(CCCl)CCCl (stereo not drawn)
inactive: dose: 25.0 mg/kg/injection, schedule: Q01DX015 (ip), vehicle: other 102 % of control | dose: 50.0 mg/kg/injection, schedule: Q01DX015 (ip), vehicle: other 104 % of control | [1] 104 % of control | dose: 100.0 mg/kg/injection, schedule: Q01DX015 (ip), vehicle: other 102 % of control | [8] 95 % of control | [2] 104 % of control | dose: 200.0 mg/kg/injection, schedule: Q01DX015 (ip), vehicle: other 102 % of control | [9] 95 % of control | [3] 106 % of control | [10] 91 % of control

COC(=O)c1ccc2c(c1)NP(=O)(c1ccccc1)S2 (stereo not drawn)
inactive: dose: 75.0 mg/kg/injection, schedule: Q01DX001 (ip), vehicle: saline 98 % of control | dose: 150.0 mg/kg/injection, schedule: Q01DX001 (ip), vehicle: saline 104 % of control | dose: 300.0 mg/kg/injection, schedule: Q01DX001 (ip), vehicle: saline 98 % of control

CC(=O)[C@H]1CC[C@H]2[C@@H]3CCC4=CC(=O)[C@H](C)C[C@]4(C)[C@@]3(F)[C@@H](O)C[C@]12C
inactive: dose: 125.0 mg/kg/injection, schedule: Q01DX Z (sc), vehicle: steriod suspending solution 105 % of control | dose: 250.0 mg/kg/injection, schedule: Q01DX Z (sc), vehicle: steriod suspending solution 111 % of control | dose: 375.0 mg/kg/injection, schedule: Q01DX Z (sc), vehicle: steriod suspending solution 105 % of control | dose: 500.0 mg/kg/injection, schedule: Q01DX Z (sc), vehicle: steriod suspending solution 103 % of control

COc1ccc(/C=C/C(=O)c2ccc(OC)c(OCc3ccccc3)c2)cc1OC
inactive: dose: 100.0 mg/kg/injection, schedule: Q01DX009 (ip), vehicle: water 98 % of control | dose: 100.0 mg/kg/injection, schedule: Q04DX003 (ip), vehicle: water 98 % of control | dose: 200.0 mg/kg/injection, schedule: Q01DX009 (ip), vehicle: water 93 % of control | dose: 200.0 mg/kg/injection, schedule: Q04DX003 (ip), vehicle: water 94 % of control | dose: 400.0 mg/kg/injection, schedule: Q01DX009 (ip), vehicle: water 97 % of control | dose: 400.0 mg/kg/injection, schedule: Q04DX003 (ip), vehicle: water 98 % of control

CCOC(=O)C(CNC(N)=O)(c1ccccc1)c1ccccc1
inactive: dose: 50.0 mg/kg/injection, schedule: Q01DX001 (ip), vehicle: carboxymethylcellulose (CMC) 93 % of control | [11] 102 % of control | [12] 87 % of control | [13] 98 % of control

O=C(/C=C\c1ccccc1)NCCCCNC(=O)/C=C/c1ccccc1
inactive: [1] 97 % of control | [2] 105 % of control | [3] 87 % of control

O=c1oc2c(CN3CCCCC3)c(O)ccc2c2c1CCCC2
inactive: [11] 93 % of control | [12] 96 % of control | [13] 93 % of control
